Data from patent US9802880B2, “Cannabigerol derivatives” (VIVACELL BIOTECHNOLOGY ESPAÑA S.L., priority 2014, dated 2017).

Key:
HT22 cells = experiment: Cytotoxicity, MTT assay, HT22 cells; format: cell-based; conditions: 24 h, FIG. 3B
Procedure: (§1) The cell lines N2a (A), HT22 (B) and MO3.13 (C) cells were incubated for 24 h with the indicated doses of CBG-Q (Compound I) versus compounds II to XII, and cell viability was quantified by MTT assay. […] Control was set as 100% and data were referred to that value.
(§2) Electrophilic quinones induce cytotoxicity and activate the Nrf2 pathway, a cellular sensor of reactive oxygen species generation. In FIG. 3 it is analyzed the induced cell death in three different types of cells (N2a, HT22 and MO3.13) by compounds CBG-Q (compound I) and compounds (II) to (XII).
(§3) N2A, HT22 and MO3.13 cell viability was determined by the MTT assay. Briefly, cells were seeded at a density of 10^4 cells/well in 96-well plates, 200 μl cell suspension per well, and cultured for 24 hours. Cells were then incubated with several concentrations of the compounds for 24 hours. […] Finally the absorbance was measured at 550 nm using a TriStar LB 941 (Berthold Technologies, GmbH & Co. KG). […] The cell lines N2a (FIG. 3A), HT22 (FIG. 3B) and MO3.13 (FIG. 3C) cells were incubated for 24 h with the indicated doses of compounds CBG-Q (compound I) and compounds (II) to (XII), and cell viability was quantified by MTT assay. Results are shown as mean±S.D. from at least three independent experiments, and expressed as percentage of cell viability against the control sample (−). […]

N2a cells = experiment: Cytotoxicity, MTT assay, N2a cells; format: cell-based; conditions: 24 h, FIG. 3A
Procedure: as §1, §2, §3

Nrf2 = Nrf2 transcriptional assay in HaCaT-ARE-Luc cells; format: cell-based; conditions: 6 h, FIG. 4
Procedure: HaCaT-ARE-Luc cells were incubated for 6 h with compounds CBG-Q compound I) and with compounds I to VI (A) or with compounds VII to XII (B) at the indicated concentrations, and protein lysates were prepared and analysed for luciferase activity. The pro-oxidant tert-Butylhydroquinone (tBHQ) at 20 μM, a compound that induces cellular oxidative stress, was used as positive control. […] The results ratify that the reactive electrophilic activity associated to CBG-Q (compound I) is missing in all the compounds (derivatives in position 2) described in the present invention.
To study the activity of the compounds on the Nrf2 pathway we generated the HaCaT-ARE-Luc cell line. Nqo1 ARE-Luc reporter plasmid and pPGK-Puro plasmid were co-transfected into HaCat cells using Lipofectamine© 2000 transfection reagent (Life Technologies, Carlsbad, Ca, USA). Stable transformants were selected and maintained in RPMI 1640 containing 10% FBS, 1% penicillin-streptomycin and […] puromycin. HaCaT-ARE-Luc cells were incubated for 6 h with CBG-Q (compound I) and with compounds (II)-(VI) (A) or with compounds (VII)-(XII) (B) at the indicated concentrations, and protein lysates were prepared and analysed for luciferase activity as described in example 1. The prooxidant tert-Butylhydroquinone (tBHQ) at 20 μM was used as positive control. […]

3NP-lesioned mice = experiment: Huntington's disease 3NP model, behavioral score; format: in vivo, C57BL/6 mice; conditions: 10 mg/kg i.p., four injections, FIG. 9
Procedure: Mice were subjected to behavioral tests for determining their neurological status after the treatment with compounds I (10 mg/kg) (A), III (10 mg/kg) (B) and XII (10 mg/kg) (C). Hind limb clasping, Locomotor activity, Hind limb dystonia and Truncal Dystonia were rated from 0 to 2 based on severity: a score of 0 typically indicates normal function and 2 seriously affected. Values are expressed as means±SEM for 8 animals per group.
Lesions of the striatum were induced with 3-NP in adult (16 week old; 30 g) male C57BL/6 mice (Harlan Ibérica, Barcelona, Spain). To this end, mice were subjected to seven intraperitoneal (i.p.) injections of 3NP (one injection each 12 hours) at a dose of 50 mg/kg (prepared in phosphate-buffered saline) for 3 days. These animals and their respective non-lesioned controls were used for pharmacological studies with compounds CBG-Q (compound I) and with compounds III and XII (FIG. 9). At least 6-8 animals were used per experimental group. Treatments consisted of four i.p. injections of the compounds at the indicated doses (one injection each 24 hours), or vehicle (DMSO 0.2%, BSA 5% in PBS) 30 min before the injections of 3NP. All animals were euthanized 12 hours after the last 3NP injection. Once euthanized, animals were dissected and their brains were rapidly removed. The right hemisphere was used to dissect the striatum, which was quickly frozen in RNAlater (Sigma-Aldrich, Germany) to analyzed inflammatory markers were by Real Time PCR. The left hemisphere was fixed in fresh 4% paraformaldehyde (in 0.1M phosphate buffered-saline) for 48 hours at 4° C. and embedded in paraffin wax for histological analysis. Mice were subjected to behavioral tests for determining their neurological status. We evaluated the general locomotor activity, the hindlimb clasping and dystonia, and the truncal dystonia. All behavioral tests were conducted prior to drug injections to avoid acute effects of the compounds under investigation.

MO3.13 cells = experiment: Cytotoxicity, MTT assay, MO3.13 cells; format: cell-based; conditions: 24 h, FIG. 3C
Procedure: as §1, §2, §3

## CCCCCC1=CC(=O)C(C/C=C(\C)CCC=C(C)C)=C(O)C1=O [CBG-Q, Cannabigerol hydroxy quinone]
HT22 cells
  cytotoxic activity (cell viability, MTT): cytotoxic activity
N2a cells
  cytotoxic activity (cell viability, MTT): cytotoxic activity
Nrf2
  Nrf2 activation (ARE-luciferase activity; reactive electrophilic activity): induces activation
3NP-lesioned mice
  clinical symptoms induced by 3-NP intoxication (hind limb clasping, locomotor activity, hind limb dystonia, truncal dystonia): unable to prevent the clinical symptoms
MO3.13 cells
  cytotoxic activity (cell viability, MTT): cytotoxic activity
